Ends that are not written are not given here.
Assays:
[1] = test system: small-diameter DRG neurons; experiment: DRG neuron excitability, perforated patch current clamp; type: cell-based, rat; conditions: 250 nM
Experimental: To knock down CaV3.2, DRGs were dissociated as described ([13]); immediately after dissociation, DRG pellets were resuspended in 900 μl DMEM (without GlutaMax I, serum or antibiotics), to which a mixture of 9 μl Lipofectamine RNAiMAX (Invitrogen) and either a mix of three anti-Cacna1h Stealth siRNAs (RSS350285, RSS350286, RSS350287; Life Technologies; 200 nM each) or a scrambled control oligo (Stealth RNAi™ siRNA Negative Control; Life Technologies; 200 nM) were added immediately before resuspension. Cultures were than plated in 50 μl droplets onto glass coverslips that were coated with poly-D-lysine and incubated for 5–6 h; the transfection media were then replaced with full DRG culture medium. Patch-clamp recordings were conducted 24–48 h after the transfection. The following primers were used for reverse transcription polymerase chain reaction (RT-PCR) analysis: • Cacna1h sense: 5′-[…]-3′ • Cacna1h AS: 5′-[…]-3′ • Gapdh sense: 5′-[…]-3′ • Gapdh AS: 5′-[…]-3′
Neuronal excitability was studied using the amphotericin B-perforated patch-clamp current technique ([13]). The extracellular solution contained the following (in mM): 160 NaCl, 2.5 KCl, 5 CaCl2, 1 MgCl2, 10 HEPES, and 8 Glucose. The intracellular solution contained the following (in mM): 145 KCl, 15 NaCl, 5 MgCl2, 10 HEPES, and 250 μg/ml Amphotericin B. The access resistance was typically within […]. APs were generated by an injection of 200 pA current for 1 s from a holding current of 0 pA. Rheobase was determined from a train of current steps from 0 to 400 pA delivered in 20-pA increments. Current clamp recordings were sampled at 12.5 kHz. Bridge balance adjustments were not applied, since only relative changes in Erest, AP number, and rheobase were investigated.

[2] = test system: rat hind paw; experiment: Nocifensive behavior after intraplantar hind-paw injection; type: in vivo; conditions: hind-paw injection 50 μl; 10 nmol/site; 30 min
Experimental: Sprague–Dawley rats (body weight, 170–180 g) were grouped randomly and allowed to acclimate for at least 30 min in a transparent observation chamber before the experiment. Animals received a 50-μl intraplantar injection of ST101 (0.001–10 nmol/site), BK (10 nmol/site), RTG (1–10 nmol/site), Z944 (0.05–5 nmol/site), SP (0.5–5 nmol/site), or saline, respectively, into the right hind paw. For evaluation of the acute “spontaneous” pain, animals were video-recorded for 30 min after the injection and protective (“nocifensive”) behavior was analyzed as time spent licking, biting, lifting, and flinching the injected paw. The analyses were performed by an observer who was unaware of treatment allocations. In the pre-injection experiments, the right hind paw of the animal received a pre-injection of 50 μl Z944 (0.05–0.5 nmol/site), RTG (1–10 nmol/site), SP (0.5 nmol/site), Z944 (0.05–0.5 nmol/site)+RTG (1 nmol/site), or saline; 5 min later, on the same paw, the animal received a further 50-μl injection of BK (10 nmol/site) together with the pre-injection drug mix. Nocifensive behavior was analyzed as described earlier.

## RPPGFSPFR [BK, bradykinin, pro-algesic signaling peptide]
[1]
  AP number: increased
  Erest: depolarized
  rheobase: significantly reduced
[2]
  nocifensive behavior: strong nocifensive response
